The nature of data set [1]: Determination of pharmacokinetic parameters following intravenous and oral administration (rats). The format is in vivo, male Wistar rats. The conditions noted are these: intravenous administration in rats; for half-life / MRT: male, Wistar, rat, plasma, iv; for MRT: read-out: MRT. The method, then: B-6. Determination of Pharmacokinetic Parameters Following Intravenous and Oral Administration
The pharmacokinetic parameters of the compounds according to the invention are determined in male CD-1 mice, male Wistar rats and female beagles. Intravenous administration in the case of mice and rats is carried out by means of a species-specific plasma/DMSO formulation, and in the case of dogs by means of a water/PEG400/ethanol formulation. In all species, oral administration of the dissolved substance is performed via gavage, based on a water/PEG400/ethanol formulation. The taking of blood from rats is simplified by inserting a silicone catheter into the right Vena jugularis externa prior to substance administration. The operation is carried out at least one day prior to the experiment with […] and administration of an analgesic (atropin/Rimadyl (3/1) 0.1 ml s.c.). The blood is taken (generally more than 10 time points) within a time window including terminal time points of at least 24 to a maximum of 72 hours after substance administration. When the blood is taken, it is passed into heparinised tubes. Then the blood plasma is obtained by centrifugation and is optionally stored at −20° C. until further processing.
An internal standard (which may also be a chemically unrelated substance) is added to the samples of the compounds according to the invention, calibration samples and qualifiers, and there follows protein precipitation by means of excess acetone. Addition of a buffer solution matched to the LC conditions, and subsequent vortexing, is followed by centrifugation at 1000 g. The supernatant is analysed by LC-MS/MS using C18 reversed-phase columns and variable mobile phase mixtures. The substances are quantified via the peak heights or areas from extracted ion chromatograms of specific selected ion monitoring experiments.
The plasma concentration/time plots determined are used to calculate the pharmacokinetic parameters such as AUC, Cmax, t1/2 (terminal half life), F (bioavailability), MRT (mean residence time) and CL (clearance), using a validated pharmacokinetic calculation program.
Since the substance quantification is carried out in plasma, it is necessary to determine the blood/plasma distribution of the substance in order to be able to adjust the pharmacokinetic parameters correspondingly. For this purpose, a defined amount of substance is incubated in heparinized whole blood of the species in question in a rocking roller mixture for 20 min. After centrifugation at 1000 g, the plasma concentration is measured (by means of LC-MS/MS; see above) and determined by calculating the ratio of the Cblood/Cplasma value.

In data set [2] the target is T1, recombinant guanylate cyclase reporter cell line (Rattus norvegicus, UniProt P19686+P20595).
T1 construct: expressed in transfected cells; host or cells: recombinant reporter cell line
T1 sequence (P19686 1-690): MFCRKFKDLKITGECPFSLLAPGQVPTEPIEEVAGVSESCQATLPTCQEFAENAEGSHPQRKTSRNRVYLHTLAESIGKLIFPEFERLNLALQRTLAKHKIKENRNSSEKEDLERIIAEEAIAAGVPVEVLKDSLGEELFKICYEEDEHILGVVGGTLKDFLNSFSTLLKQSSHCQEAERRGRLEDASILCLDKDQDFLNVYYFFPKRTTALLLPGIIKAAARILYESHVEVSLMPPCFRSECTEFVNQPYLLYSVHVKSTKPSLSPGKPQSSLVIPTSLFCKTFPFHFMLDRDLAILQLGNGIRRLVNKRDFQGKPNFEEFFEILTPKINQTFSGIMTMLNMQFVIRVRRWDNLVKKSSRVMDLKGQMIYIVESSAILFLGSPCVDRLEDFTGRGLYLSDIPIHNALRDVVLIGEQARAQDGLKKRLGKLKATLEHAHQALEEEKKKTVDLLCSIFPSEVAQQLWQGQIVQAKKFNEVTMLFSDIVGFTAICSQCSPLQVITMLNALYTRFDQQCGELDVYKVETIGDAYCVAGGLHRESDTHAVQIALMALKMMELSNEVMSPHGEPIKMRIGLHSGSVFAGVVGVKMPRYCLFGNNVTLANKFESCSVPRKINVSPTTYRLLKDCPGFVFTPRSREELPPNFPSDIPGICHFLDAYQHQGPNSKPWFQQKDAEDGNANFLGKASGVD
T1 sequence (P20595 1-619): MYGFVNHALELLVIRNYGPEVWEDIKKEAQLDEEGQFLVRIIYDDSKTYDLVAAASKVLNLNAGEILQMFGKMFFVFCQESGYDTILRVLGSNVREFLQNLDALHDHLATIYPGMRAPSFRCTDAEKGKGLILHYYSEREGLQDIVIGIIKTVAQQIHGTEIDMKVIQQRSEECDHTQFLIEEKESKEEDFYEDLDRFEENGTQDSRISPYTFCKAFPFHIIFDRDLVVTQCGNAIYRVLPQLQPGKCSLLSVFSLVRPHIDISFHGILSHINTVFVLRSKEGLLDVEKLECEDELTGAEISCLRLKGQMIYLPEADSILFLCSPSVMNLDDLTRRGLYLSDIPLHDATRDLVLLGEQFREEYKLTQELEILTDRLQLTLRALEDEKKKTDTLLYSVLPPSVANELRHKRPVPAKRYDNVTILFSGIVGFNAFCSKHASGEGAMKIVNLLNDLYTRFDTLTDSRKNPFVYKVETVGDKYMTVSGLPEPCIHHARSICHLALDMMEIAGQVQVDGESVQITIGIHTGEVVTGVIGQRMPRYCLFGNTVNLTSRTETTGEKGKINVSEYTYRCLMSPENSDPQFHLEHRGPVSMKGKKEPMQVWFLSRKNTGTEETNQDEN
Nature of the data set: Action on recombinant guanylate cyclase reporter cell line. The format is cell-based. The conditions noted are these: in some cases mean values from individual determinations. The essentials: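 Read-out: MEC (minimal effective concentration) in cells. Reporter line carries recombinant sGC. Some values are averages of single runs.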

Where a name gives a salt, the structure may show the parent alone.

On to `Cc1nc2c(OCc3c(F)cccc3F)cccn2c1C(=O)NC(CN)CCCC(F)(F)F` (racemic) [Example 4, rac-N-(1-amino-6,6,6-trifluorohexan-2-yl)-8-[(2,6-difluorobenzyl)oxy]-2-methylimidazo[1,2-a]pyridine-3-carboxamide], for which, in data set [1], the AUCnorm is 0.58 kg·h/L; the CLblood is 27.8 mL/min/kg; the half-life (in general, the time needed for the level to fall by half in the phase considered) is 5.2 h; the MRT (usually a mean duration of stay, worked out from the concentration-time curve) was determined as 6.7 h.

For `Cc1cc(OCc2c(F)cccc2F)c2nc(C)c(C(=O)NCC(C)(N)CF)n2c1` (racemic) [Example 282, rac-N-(2-amino-3-fluoro-2-methylpropyl)-8-[(2,6-difluorobenzyl)oxy]-2,6-dimethylimidazo[1,2-a]pyridine-3-carboxamide Formate], in data set [1], the AUCnorm came to 0.73 kg·h/L, the CLblood amounted to 23.5 mL/min/kg, the half-life was 4.5 h and the mean residence time (MRT) amounted to 5.7 h. In data set [2], the “MEC (minimal effective concentration)” value came to 0.3 µM.

`CCCC(C)(N)CNC(=O)c1c(C)nc2c(OCc3cccc(F)c3F)cc(C)cn12` (racemic) [Example 303, rac-N-(2-amino-2-methylpentyl)-8-[(2,3-difluorobenzyl)oxy]-2,6-dimethylimidazo[1,2-a]pyridine-3-carboxamide]: in data set [1], the AUCnorm turned out to be 0.26 kg·h/L, the CLblood came out at 45.7 mL/min/kg, the half-life is 5.7 h and the MRT was 8.2 h. For the same compound, the “MEC (minimal effective concentration)” value in data set [2] worked out at 0.20 µM.

In the case of `CCC(C)(N)CNC(=O)c1c(C)nc2c(OCc3c(F)cccc3F)cc(Cl)cn12` (single isomer, unassigned) [Example 194, ent-N-(2-Amino-2-methylbutyl)-6-chloro-8-[(2,6-difluorobenzyl)oxy]-2-methylimidazo[1,2-a]-pyridine-3-carboxamide], in data set [1], the AUCnorm worked out at 2.06 kg·h/L, the CLblood worked out at 8 mL/min/kg, the half-life was 16.8 h and the mean residence time (MRT) was 24.4 h. Further, the “MEC (minimal effective concentration)” value in data set [2] was 0.10 µM.

For the compound `CCCC(C)(N)CNC(=O)c1c(C)nc2c(OCc3ccccc3Br)cc(C)cn12` (stereo not shown) [Example 353, N-(2-amino-2-methylpentyl)-8-[(2-bromobenzyl)oxy]-2,6-dimethylimidazo[1,2-a]pyridine-3-carboxamide], the “MEC (minimal effective concentration)” value in data set [2] came out at 3.00 µM.

Turning to `CCCC(C)(N)CNC(=O)c1cnc2c(OCc3c(F)cccc3F)cccn12` (stereo not drawn) [Example 354, ent-N-(2-amino-2-methylpentyl)-8-[(2,6-difluorobenzyl)oxy]imidazo[1,2-a]pyridine-3-carboxamide], the “MEC (minimal effective concentration)” value in data set [2] came out at 3.00 µM.

As to `C#Cc1cc(OCc2c(F)cccc2F)c2nc(C)c(C(=O)NCC(C)(N)CCC)n2c1` (stereo not drawn) [Example 355, ent-N-(2-amino-2-methylpentyl)-8-[(2,6-difluorobenzyl)oxy]-6-ethynyl-2-methylimidazo[1,2-a]pyridine-3-carboxamide Formate], the “MEC (minimal effective concentration)” value in data set [2] amounted to 0.30 µM.

On to `CCCC(C)(N)CNC(=O)c1c(C)nc2c(OCc3c(F)ccc(C4CC4)c3F)cc(C)cn12` (stereo not drawn) [Example 359, ent-N-(2-amino-2-methylpentyl)-8-[(3-cyclopropyl-2,6-difluorobenzyl)oxy]-2,6-dimethylimidazo[1,2-a]pyridine-3-carboxamide], for which the “MEC (minimal effective concentration)” value in data set [2] amounted to 3.00 µM.

With `CCC(C)(N)CNC(=O)c1c(C)nc2c(OCc3c(F)ccc(OC)c3F)cc(C)cn12` (stereo not drawn) [Example 360, ent-N-(2-amino-2-methylbutyl)-8-[(2,6-difluoro-3-methoxybenzyl)oxy]-2,6-dimethylimidazo[1,2-a]pyridine-3-carboxamide], the “MEC (minimal effective concentration)” value in data set [2] amounted to 1.00 µM.

For `COc1ccc(F)c(COc2cc(C)cn3c(C(=O)NCC(C)(N)CF)c(C)nc23)c1F` (stereo not drawn) [Example 361, ent-N-(2-amino-3-fluoro-2-methylpropyl)-8-[(2,6-difluoro-3-methoxybenzyl)oxy]-2,6-dimethylimidazo[1,2-a]pyridine-3-carboxamide], the “MEC (minimal effective concentration)” value in data set [2] amounted to 1.00 µM.

Take `Cc1cc(OCc2c(F)ccc(C3CC3)c2F)c2nc(C)c(C(=O)NCC(C)(N)CF)n2c1` (stereo not shown) [Example 362, N-(2-amino-3-fluoro-2-methylpropyl)-8-[(3-cyclopropyl-2,6-difluorobenzyl)oxy]-2,6-dimethylimidazo[1,2-a]pyridine-3-carboxamide]: the “MEC (minimal effective concentration)” value in data set [2] stood at 1.00 µM.

Turning to `CCC(C)(N)CNC(=O)c1c(C)nc2c(OCc3c(F)ccc(C4CC4)c3F)cc(C)cn12` (stereo not drawn) [Example 363, ent-N-(2-amino-2-methylbutyl)-8-[(3-cyclopropyl-2,6-difluorobenzyl)oxy]-2,6-dimethylimidazo[1,2-a]pyridine-3-carboxamide], in data set [2], the “MEC (minimal effective concentration)” value stood at 3.00 µM.

Regarding `CCCC(C)(N)CNC(=O)c1c(C)nc2c(OCc3c(F)ccc(OC)c3F)cc(C)cn12` (stereo not drawn) [Example 364, ent-N-(2-amino-2-methylpentyl)-8-[(2,6-difluoro-3-methoxybenzyl)oxy]-2,6-dimethylimidazo[1,2-a]pyridine-3-carboxamide], in data set [2], the “MEC (minimal effective concentration)” value is 0.30 µM.

As for `Cc1cc(OCc2c(F)cccc2F)c2nc(C)c(C(=O)NC34CC5CC(CC(N)(C5)C3)C4)n2c1` [Example 365, N-(3-aminoadamantan-1-yl)-8-[(2,6-difluorobenzyl)oxy]-2,6-dimethylimidazo[1,2-a]pyridine-3-carboxamide Formate], the “MEC (minimal effective concentration)” value in data set [2] turned out to be 1.00 µM.

For the compound `CCOC(=O)c1cccc(C(CN)NC(=O)c2c(C)nc3c(OCc4c(F)cccc4F)cc(C)cn23)n1` (stereo not shown) [Example 397], the “MEC (minimal effective concentration)” value in data set [2] amounted to 1.00 µM.

With `Cc1cc(OCc2c(F)cccc2F)c2nc(C)c(C(=O)NC(CN)c3ccc(C#N)cc3)n2c1` (stereo not shown) [Example 398], in data set [2], the “MEC (minimal effective concentration)” value worked out at 0.30 µM.

For the compound `CCCC(C)(N)CNC(=O)c1c(C)nc2c(OCc3c(F)cccc3F)cc(CF)cn12` (stereo not drawn) [Example 403, ent-N-(2-amino-2-methylpentyl)-8-[(2,6-difluorobenzyl)oxy]-6-(fluoromethyl)-2-methylimidazo[1,2-a]pyridine-3-carboxamide], in data set [2], the “MEC (minimal effective concentration)” value amounted to 0.10 µM.

In the case of `CCC(C)(N)CNC(=O)c1c(C)nc2c(OCc3c(F)cccc3F)cc(CF)cn12` (stereo not shown) [Example 404], the “MEC (minimal effective concentration)” value in data set [2] was 0.30 µM.

Turning to `Cc1nc2c(OCc3c(F)cccc3F)cc(CF)cn2c1C(=O)NCC(C)(N)CF` (stereo not shown) [Example 405], the “MEC (minimal effective concentration)” value in data set [2] is 0.30 µM.

Values taken from patent US20150274719A1, “AMINO-SUBSTITUTED IMIDAZO[1,2-A]PYRIDINECARBOXAMIDES AND THEIR USE” (BAYER PHARMA AKTIENGESELLSCHAFT, priority 2012, published 2015).
